Counter-ions that a name gives are not always drawn. Like-named read-outs stand apart in the source and are kept apart here. Square brackets hold non-standard residues; d marks the D form. Peptide text beside a SMILES is read from it. Nle = CCCC[C@H](N)C(=O)O
What was measured:
Design in all cases: species or system AML cell lines (8); Primary HTS, single concentration about 10 uM, Cell Titer Glo viability; log10 luminescence, per cent inhibition relative to cycloheximide control
Details in all cases: 72 h, relative to cycloheximide control, log10 luminescence, inhibitor
[1] = system: CMS
[2] = system: ML-2
[3] = system: MOLM-13
[4] = system: CMK
[5] = system: CHRF288-11
[6] = system: M07e
[7] = system: U937
[8] = system: MV4-11

Compound	CMS %inh [1] [%]	ML-2 %inh [2] [%]	MOLM-13 %inh [3] [%]	CMK %inh [4] [%]	CHRF288-11 %inh [5] [%]	M07e %inh [6] [%]	U937 %inh [7] [%]	MV4-11 %inh [8] [%]	CMS %inh ([1]; CMS %inh, 10 µM) [%]	ML-2 %inh ([2]; ML-2 %inh, 10 µM) [%]	MOLM-13 %inh ([3]; MOLM-13 %inh, 10 µM) [%]	CMK %inh ([4]; CMK %inh, 10 µM) [%]	CHRF288-11 %inh ([5]; CHRF288-11 %inh, 10 µM) [%]	M07e %inh ([6]; M07e %inh, 10 µM) [%]	U937 %inh ([7]; U937 %inh, 10 µM) [%]	MV4-11 %inh ([8]; MV4-11 %inh, 10 µM) [%]
Cn1cc(C2=C(c3cn(CCCCCN)c4ccccc34)C(=O)NC2=O)c2ccccc21 [SJ000581165-1]	0.9818	1.663	2.139	0.6124	2.441	4.895	0.4783	1.637	–	–	–	–	–	–	–	–
O=C1OC(=O)C(c2c[nH]c3ccccc23)=C1c1c[nH]c2ccccc12 [SJ000581166-1]	5.505	2.957	3.376	0.5161	5.422	-1.376	1.32	1.035	–	–	–	–	–	–	–	–
NC1=NC(=O)/C(=C/c2ccc3ncccc3c2)S1 [SJ000581167-1]	1.297	6.393	12.5	14.91	7.843	-0.544	10.35	20.86	–	–	–	–	–	–	–	–
COc1ccc(N2Cc3cnc(Nc4ccccc4)nc3N([C@@H]3CC[C@@H](O)C3)C2=O)cc1 [SJ000581169-1]	-0.5577	3.259	15.09	31.32	84.91	3.499	3.756	9.017	–	–	–	–	–	–	–	–
CN1CCN(CCc2cccc(C(=O)c3cnn(-c4ccc(F)cc4)c3N)c2)CC1 [SJ000581170-1]	1.769	2.973	4.249	6.346	-2.499	1.993	7.701	3.349	–	–	–	–	–	–	–	–
Cn1c(=O)c(Oc2ccccc2)cc2cnc(NC3CCOCC3)nc21 [SJ000581171-1]	6.487	2.493	4.705	8.741	9.708	1.8	5.834	4.76	–	–	–	–	–	–	–	–
Nc1c(C(=O)c2cccc(-c3ccncc3)c2)cnn1-c1ccc(F)cc1 [SJ000581172-1]	2.678	3.419	5.84	6.56	-2.059	6.562	13.25	2.351	–	–	–	–	–	–	–	–
Cc1[nH]nc2c1N=C(c1ccccc1Cl)c1cc([N+](=O)[O-])ccc1N2 [SJ000581173-1]	91.81	56.78	62.4	116.1	37.73	57.3	91.37	86.62	–	–	–	–	–	–	–	–
Nc1c(C(=O)c2ccc(C#CCN3CCOCC3)cc2)cnn1-c1ccc(F)cc1 [SJ000581175-1]	1.749	-0.5007	6.812	5.964	-0.8034	-0.05766	8.015	6.7	–	–	–	–	–	–	–	–
CNCCCn1cc(C2=C(c3cn(C)c4ccccc34)C(=O)NC2=O)c2ccccc21 [SJ000581176-1]	6.195	2.284	86.21	37.79	23.82	23.08	9.304	44.21	–	–	–	–	–	–	–	–
CNc1ncc2cc(Oc3ccc(F)cc3F)c(=O)n(C)c2n1 [SJ000581177-1]	-2.096	0.6187	3.528	4.145	-5.721	-0.008012	2.229	2.766	–	–	–	–	–	–	–	–
COc1cccc(F)c1C(=O)c1cnc(NC2CCN(S(C)(=O)=O)CC2)nc1N [SJ000581178-1]	16.64	11.75	39.82	27.9	12.21	26.23	27.27	20.51	–	–	–	–	–	–	–	–
CCCC[C@@H](C=O)NC(=O)[C@H](CC(C)C)NC(=O)OCc1ccccc1 [SJ000755074-1, CALPEPTIN]	–	–	–	–	–	–	–	–	3.296	-0.6331	2.613	-0.01297	18.64	0.9114	2.282	4.895
CCCC[C@@H](C=O)NC(=O)[C@H](CC(C)C)NC(=O)OCc1ccccc1 [SJ000755074-2, CALPEPTIN]	–	–	–	–	–	–	–	–	2.144	0.3376	5.31	-0.8705	27.98	2.133	3.349	8.208
CNC(=O)[C@H](Cc1c[nH]c2ccccc12)NC(=O)[C@@H](CC(=O)NO)CC(C)C [SJ000755078-1, GM 6001 | ILOMASTAT (GM6001, GALARDIN)]	-0.9664	-0.512	3.013	-1.76	9.385	-0.3296	9.818	1.237	–	–	–	–	–	–	–	–
CCCCNC(=O)[C@@H]1Cc2ccccc2N1C(=O)[C@@H](N)CC [SJ000772394-1, BUTABINDIDE OXALATE]	0.61	-0.1457	0.241	2.146	-4.064	-2.465	2.937	-1.569	–	–	–	–	–	–	–	–
CC(C)[C@H](NS(=O)(=O)c1ccc(-c2ccc(Br)cc2)cc1)C(=O)O [SJ000772395-1, PD 166793]	-2.252	-0.8645	0.2317	1.088	2.843	-2.219	3.907	-0.00905	–	–	–	–	–	–	–	–
CCCC[C@@H](C=O)NC(=O)[C@H](CC(C)C)NC(=O)[C@H](CC(C)C)NC(C)=O [SJ000772397-1, MG 101 | ALLN] (Ac-Leu-Leu-[Nle]-aldehyde)	98.27	57.14	102.2	126.5	140.2	121	52.66	82.08	–	–	–	–	–	–	–	–
Cc1ccc(/C=C2\CNC/C(=C\c3ccc(C)cc3)C2=O)cc1 [SJ000772404-1, NSC 632839 HYDROCHLORIDE]	103.5	61.57	99.63	116.6	82.45	129.2	84.59	77.36	–	–	–	–	–	–	–	–
N#Cc1ccc(NCCNCC(=O)N2CCC[C@H]2C#N)nc1 [SJ000772405-1, NVP DPP 728 DIHYDROCHLORIDE]	0.6231	-1.409	-0.2952	-0.003306	-4.67	-0.0114	-2.969	-0.757	–	–	–	–	–	–	–	–
O=C(O)Cc1cccc2c(=O)c([N+](=O)[O-])c(-c3ccccc3[N+](=O)[O-])oc12 [SJ000772406-1, AMINOPEPTIDASE N INHIBITOR]	-0.7017	1.312	-3.246	-2.215	5.038	-0.1255	-3.753	-1.986	–	–	–	–	–	–	–	–

Reference: article PMC6522510 (Nature Communications, 2019)
